Values quoted from earlier work in US20090137457A1, “Pyrimidinedione derivatives” (CoNCERT Pharmaceuticals, Inc., priority 2007, published 2009).

Settings: Phase I and II clinical trials; Christopher R et al., ADA 2007 (Abs 0495-P)

SMILES: Cn1c(=O)cc(N2CCC[C@@H](N)C2)n(Cc2ccccc2C#N)c1=O [Alogliptin]
- tolerability in clinical trials: generally well tolerated
